Data as given in patent US20050075398A1, “Neuroprotectin D1 protects against cellular apoptosis, stroke damage, alzheimer's disease and retinal diseases” (priority 2003, published 2005).

What was measured:
[1] = tested on: AP1-DNA binding activity; assay: EMSA of AP1 in IL-1β-exposed human neural progenitor cells; format: cell-based; details: HN progenitor cells
Experimental: Human neural (HN) progenitor cells in primary culture. HN cells were grown to ˜70% confluence (˜50,000 cells per 3.5-cm diameter well) in 6-well COSTAR plates at 37° C., 5% CO2/20% O2/75% N2 in humidified air at 1 atm (normoxic conditions) in NPMM medium (Clonetics CC-4241) supplemented with hFGF, NSF-1, hEGF, GA-1000, as described by the manufacturer (Clonetics, Walkersville, Md.). HN cells tested negative for HIV-1, hepatitis B and C, mycoplasma, bacteria, yeast, and fungi, and positive for the glial and neuronal markers GFAP, MAP2, and β-tubulin III (Clonetics). […]
Electrophoretic mobility-shift assay (EMSA) of human AP1, HIF-1α, NF-κBp50/p65, and STAT-1α. Nuclear protein extracts (NPXTs) were prepared from one to three 3.5 cm-diameter wells of HN cells and quantitated. NPXTs (5 μg) derived from HN cells were incubated with[γ-^32P]-ATP (˜3000 Ci/mmol)-end-labeled AP1, HIF-1α, NF-κκBp50/p65, or STAT-1α consensus and mutant oligonucleotides in 5-μl volumes, reacted for 30 min on ice, analyzed on 5% or 10% acrylamide/90 mM Tris-borate pH 8.4, 1 mM EDTA (TBE) gels, dried onto 2-mm Whatman filter paper at 80° C. for 2 h, and phosphorimaged using a Typhoon Variable Mode Imager (Amersham Pharmacia Biotech, Piscataway, N.J. ).

[2] = tested on: Bcl-xL gene expression; assay: HGU133 GeneChip DNA array in HN cells: Bcl-xL; format: cell-based, human; details: Aβ42 25 μM, DHA 50 nM or NPD1 50 nM, 18 h, nsc = no significant change
[3] = tested on: B94 gene expression; assay: HGU133 GeneChip DNA array in HN cells: B94; format: cell-based, human; details: Aβ42 25 μM, DHA 50 nM or NPD1 50 nM, 18 h, nsc = no significant change
Excerpt: RNA Isolation and Spectral Quality. Brain tissues were rapidly processed, and total RNA was extracted using Trizol reagent (Invitrogen, Carlsbad, Calif.). Total RNA quality and abundance were profiled using RNA Nano LabChips (Caliper Technologies, Mountainview, Calif.; Agilent Technologies, Palo Alto, Calif.).
Probe Synthesis and GeneChip Hybridization. Biotinylated antisense cRNAs were synthesized from cDNA using the Superscript Choice System (Invitrogen) and Enzo Biorray High Yield RNA Transcript Labeling kits according to the manufacturer's protocols (Affymetrix) and as described in Colangelo, V., Schurr, J., Ball, M. J., Pelaez, R. P., Bazan, N. G., Lukiw, W. J. (2002) J. Neurosci. Res., 70: 462-473; and Lukiw, W. J. (2004) Neurochem. Research, 29: 1287-1297. Probes were hybridized against HU133Av2 GeneChip DNA arrays that interrogate approximately 33,000 full-length […] genes and expressed sequence tag (EST) clusters. […]
GeneChip Data and Statistical Analysis. […] Volcano plots were plotted representing total gene expression patterns as a function of fold-change as compared to expression patterns of age-matched controls as plotted against p, as calculated by an analysis of variance (ANOVA). […] Statistical significance was analyzed using a two-way factorial analysis of variance (p, ANOVA; Statistical Analysis System; SAS Institute, Cary, N.C. ).

[4] = tested on: Bad; assay: Western blot of Bad in ARPE-19 cells under TNFα/H2O2; format: cell-based, human; details: 50 nM; similar conditions (800 μM H2O2 with TNFα)
Experimental: Analysis of pro- and anti-apoptotic proteins in ARPE-19 cells: Bcl-2 family proteins were analyzed by Western-blot analysis. In brief, 20-μg equivalents of each cell extract were subjected to electrophoresis on a 8-16% gel (Promega, Madison, Wis.) at 125 volts for 2 h. The proteins were transferred to nitrocellulose membrane at 30 volts for 1 h at 4° C. The membranes were subjected to treatment with primary antibodies of Bcl-2, Bcl-xL, Bax, and Bad for 1 h at room temperature, and probed 30 min with secondary antibody, goat anti-rabbit Ig:HRPO and HRP-conjugated anti-biotin antibody. (BD Sciences—Pharminogen, San Diego, Calif.) Then proteins were evaluated using an ECL kit. (Amersham Biosciences Corp., Piscataway, N.J.)
Using the same TNFα/H2O2 concentrations, Bcl-2 proteins were assayed. Cells were grown for 72 h after plating, placed in serum-free medium for 1 h, then incubated with TNFα/H2O2 for 6 h. Protein expression and Western-blot analysis were performed as described in Example 13. Data in FIGS. 14A, 14B, 14C and 14D represent four independent experiments with triplicate samples in each case. Anti-apoptotic protein Bcl-xL was enhanced in ARPE-19 cells by TNFα/H2O2 (800 μM) (FIG. 14B, first bar), whereas Bcl-2 was not changed (FIG. 14A, first bar).

With CC/C=C\C[C@H](O)\C=C/C=C/C=C/[C@H](O)C/C=C\C/C=C\CCC(=O)O [NPD1, 10,17S-docosatriene] the “effect on IL-1β-induced AP1-DNA binding activity” value [1] was “did not affect”, the “Bcl-xL gene expression, fold change over untreated controls” value [2] was “+2.4 fold” and the “B94 gene expression, fold change over untreated controls” value [3] was “nsc”. The “decrease of oxidative stress-increased Bad” value [4] was 52%.
